Laboratory results as given in patent US6960582B2, “Guanidino compounds” (Chiron Corporation, priority 2001, dated 2005).

The molecules below were run against MC4-R (Homo sapiens, UniProt P32245) (assay: cAMP Scintillation Proximity Assay (SPA) in cells expressing MC4-R). Details: intercellular cAMP concentration by SPA kit, read-out: in vitro potency (as measured by EC50 value).
Format: cell-based
Procedure: EC50 values of test compounds were determined by treating cells expressing MC4-R with test compound and lysing the cells and measuring intercellular cAMP concentration with an Amersham-Pharmacia RPA-559 cAMP Scintillation Proximity Assay (SPA) kit. The following compounds were synthesized and tested according to this assay. The following compounds are merely illustrative and should not be construed as limiting of the instant invention.

Chain of MC4-R (P32245 whole entry, species assumed): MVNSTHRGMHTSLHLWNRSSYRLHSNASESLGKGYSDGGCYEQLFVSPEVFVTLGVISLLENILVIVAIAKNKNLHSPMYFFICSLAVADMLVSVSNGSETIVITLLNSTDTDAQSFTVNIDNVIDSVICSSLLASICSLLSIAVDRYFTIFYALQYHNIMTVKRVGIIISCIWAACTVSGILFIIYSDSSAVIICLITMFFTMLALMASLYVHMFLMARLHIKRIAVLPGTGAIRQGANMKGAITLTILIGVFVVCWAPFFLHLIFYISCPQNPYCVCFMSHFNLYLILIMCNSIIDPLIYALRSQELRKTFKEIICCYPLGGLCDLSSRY

| SMILES | EC50 [µM] |
| --- | --- |
| C[C@@H]1[C@@H](N=C(Nc2ccc3c(c2)CN([C@H](CO)Cc2ccc(Cl)cc2Cl)C3=O)N2CCN[C@@H](C)C2)C[C@H]2C[C@@H]1C2(C)C [Example 9, (3S)-N-{2-[(1S)-1-(2,4-dichlorobenzyl)-2-hydroxyethyl]-1-oxo-2,3-dihydro-1H-isoindol-5yl}-3-methyl-N′-[(1S,2S,3S,5R)-2,6,6-trimethylbicyclo[3.1.1]hept-3-yl]piperazine-1-carboximidamide] | < 3 |
| Cc1ccc(CCN2C(=O)c3ccc(NC(=N[C@H]4C[C@H]5C[C@@H]([C@@H]4C)C5(C)C)N4CCN[C@@H](C)C4)cc3C2=O)c(C)c1 [Example 13, (3S)-N-{2-[2-(2,4-dimethylphenyl)ethyl]-1,3-dioxo-2,3-dihydro-1H-isoindol-5-yl}-3-methyl-N′-[(1S,2S,3S,5R)-2,6,6-trimethylbicyclo[3.1.1]hept-3-yl]piperazine-1-carboximidamide] | < 3 |
| COc1ccc(CCN2C(=O)c3ccc(NC(=N[C@H]4C[C@H]5C[C@@H]([C@@H]4C)C5(C)C)N4CCN[C@@H](C)C4)cc3C2=O)c(OC)c1 [Example 12, (3S)-N-{2-[2-(2,4-dimethoxyphenyl)ethyl]-1,3-dioxo-2,3-dihydro-1H-isoindol-5-yl}-3-methyl-N′-[(1S,2S,3S,5R)-2,6,6-trimethylbicyclo[3.1.1]hept-3-yl]piperazine-1-carboximidamide] | < 3 |
| C[C@@H]1[C@@H](N=C(Nc2ccc3c(c2)C(=O)N([C@H](CO)Cc2ccccc2)C3=O)N2CCN[C@@H](C)C2)C[C@H]2C[C@@H]1C2(C)C [Example 5, (3S)-N-{2-[(1S)-1-benzyl-2-hydroxyethyl]-1,3-dioxo-2,3-dihydro-1H-isoindol-5-yl}-3-methyl-N′-[(1S,2S,3S,5R)-2,6,6-trimethylbicyclo[3.1.1]hept-3-yl]piperazine-1-carboximidamide] | < 3 |
| COc1ccc(CCN2Cc3cc(NC(=N[C@H]4C[C@H]5C[C@@H]([C@@H]4C)C5(C)C)N4CCN[C@@H](C)C4)ccc3C2=O)c(F)c1 [Example 17, (3S)-N-{2-[2-(2-fluoro-4-methoxyphenyl)ethyl]-1-oxo-2,3-dihydro-1H-isoindol-5-yl}-3-methyl-N′-[(1S,2S,3S,5R)-2,6,6-trimethylbicyclo[3.1.1]hept-3-yl]piperazine-1-carboximidamide] | < 3 |
| Cc1ccc(CCN2Cc3cc(NC(=N[C@H]4C[C@H]5C[C@@H]([C@@H]4C)C5(C)C)N4CCN[C@@H](C)C4)ccc3C2=O)c(C)c1 [Example 20, (3S)-N-{2-[2-(2,4-dimethylphenyl)ethyl]-1-oxo-2,3-dihydro-1H-isoindol-5-yl}-3-methyl-N′-[(1S,2S,3S,5R)-2,6,6-trimethylbicyclo[3.1.1]hept-3-yl]piperazine-1-carboximidamide] | < 3 |

Continued, values first:

| EC50 [µM] | SMILES |
| --- | --- |
| < 3 | Cc1ccc(CCc2nc3ccc(NC(=N[C@H]4C[C@H]5C[C@@H]([C@@H]4C)C5(C)C)N4CCN[C@@H](C)C4)cc3[nH]2)c(C)c1 [Example 24, (3S)-N-{2-[2-(2,4-dimethylphenyl)ethyl]-1H-benzimidazol-6-yl}-3-methyl-N′-[(1S,2S,3S,5R)-2,6,6-trimethylbicyclo[3.1.1]hept-3-yl]piperazine-1-carboximidamide] |
| < 3 | C[C@@H]1[C@@H](N=C(Nc2ccc3nc(CCc4ccc(F)cc4Cl)[nH]c3c2)N2CCN[C@@H](C)C2)C[C@H]2C[C@@H]1C2(C)C [Example 25, (3S)-N-{2-[2-(2-chloro-4-fluorophenyl)ethyl]-1H-benzimidazol-6-yl}-3-methyl-N′-[(1S,2S,3S,5R)-2,6,6-trimethylbicyclo[3.1.1]hept-3-yl]piperazine-1-carboximidamide] |
| < 3 | C[C@@H]1[C@@H](N=C(Nc2ccc3c(c2)CN(CCc2ccc(F)cc2F)C3=O)N2CCN[C@@H](C)C2)C[C@H]2C[C@@H]1C2(C)C [Example 18, (3S)-N-{2-[2-(2,4-difluorophenyl)ethyl]-1-oxo-2,3-dihydro-1H-isoindol-5-yl}-3-methyl-N′-[(1S,2S,3S,5R)-2,6,6-trimethylbicyclo[3.1.1]hept-3-yl]piperazine-1-carboximidamide] |
